This note sets out measurements from PMC3160846 (PLoS ONE, 2011).

SMILES strings stand for the structures. Read-outs that look alike come from different tables or passages of the source.

Assay [1] concerns various human cancer cell lines. Kind of assay: Clonogenic assay, panel of cancer cell lines. Conditions: for IC50: Homo sapiens. Type of assay: cell-based. Here is the method: (§1) Human lung adenocarcinoma A549 cells and NTUB1 bladder cancer cells were maintained in RPMI supplied with 10% fetal bovine serum. KB-derived MDR1-expressing cell lines (i.e. KB-VIN10 and KB-S15) and NTUB1-dervided MDR1-expressing cell line (i.e. NTU0.017) were maintained in growth medium supplemented with 10 nM vincristine, 15 nM and 17 nM paclitaxel respectively. […] KB-derived MRP1-expressing cell line, KB-7D, was maintained in growth medium supplemented with 7 µM VP-16.
(§2) Two hundred cells in logarithmic growth phase were seeded in a 6-well plate. The cells were exposed to various concentrations of the test drugs for a three-generation period. At the end of the incubation period, cells were fixed and stained with 50% ethanol containing 0.5% methylene blue for 30 min. The plates were washed five times with water and allowed to air-dry. Colonies were countered manually. The IC50 value resulting from 50% inhibition of cell growth was calculated graphically as a comparison with the growth of the control group. Each value represents the average of at least three independent experiments run in triplicates.

In another assay the test system is KB-7D cells. Kind of assay: Clonogenic assay, KB-7D. The format is cell-based. The settings on record: Homo sapiens, KB7D, VP-16 resistant, MRP1 ↑, read-out: IC50, anti-proliferative activity. The protocol: as §1, §2
The next assay concerns the target T1, ALK (Homo sapiens, UniProt Q9UM73).
T1 construct: His-tagged ALK (residues V1058-P1620) containing kinase domain; His; made in house; host or cells: Sf9 insect cells
Kind of assay: Kinase inhibition assay, ALK. Type of assay: biochemical. Here is the method:
ALK – The recombinant His-tagged ALK (residues V1058-P1620) containing kinase domain was expressed in Sf9 insect cells. The kinase assay was carried out in 96-well plates with the tested compound at 30°C for 120 min.
(§3) Composition of the reaction buffers used in different kinase inhibitory assays is described in Figure S3.
25 mM HEPES pH 7.4, 10 mM MgCl2, 4 mM MnCl2, 0.5 mM Na3VO4, 2 mM DTT, 0.02% Triton X100, 0.01% BSA, 1 μM ATP, 2 μM polyGlu4:Tyr peptide, 50~100 ng recombinant ALK.

The test system of another assay is NTUB1 cells. Put plainly: Clonogenic assay, NTUB1. The format is cell-based, Human. The settings on record: Homo sapiens; NTUB1, bladder, MDR1 negative (parental); read-out: IC50, anti-proliferative activity. Here is the method:
Human lung adenocarcinoma A549 cells and NTUB1 bladder cancer cells were maintained in RPMI supplied with 10% fetal bovine serum. […] KB-derived MRP1-expressing cell line, KB-7D, was maintained in growth medium supplemented with 7 µM VP-16.
Two hundred cells in logarithmic growth phase were seeded in a 6-well plate. The cells were exposed to various concentrations of the test drugs for a three-generation period. At the end of the incubation period, cells were fixed and stained with 50% ethanol containing 0.5% methylene blue for 30 min. The plates were washed five times with water and allowed to air-dry. Colonies were countered manually. […] Each value represents the average of at least three independent experiments run in triplicates.

For a further assay, the target named is T2, FLT3 (Homo sapiens, UniProt P36888).
T2 construct: FLT3 kinase catalytic domain (residues Y567∼S993); made in house; host or cells: Sf9 insect cells
Put plainly: Kinase-Glo inhibition assay, FLT3. The format is biochemical. The protocol: FLT3 – GST-tagged FLT3-KDWT containing the FLT3 kinase catalytic domain (residues Y567∼S993) were expressed in Sf9 insect cells. The FLT3WT Kinase-Glo assays were carried out in 96-well plates at 30°C for 4 h with the tested compound.
as §3
75 ng GST-FLT3-KDWT proteins, 25 mM HEPES, pH 7.4, 4 mM MnCl2, 10 mM MgCl2, 2mM DTT, 0.02% Triton X-100, 0.1 mg/ml bovine serum albumin, 25 μM Her2 peptide substrate, 0.5 mM Na3VO4, and 1 μM ATP.
On the technique in general: In Kinase-Glo more light means more ATP remaining.

A further assay addresses T3, EGFR (Homo sapiens, UniProt P00533).
T3 construct: GST-tagged EGFR (residues G696-G1022) containing kinase domain; GST; made in house; host or cells: Sf9 insect cells
Kind of assay: Kinase inhibition assay, EGFR. Type of assay: biochemical. The protocol:
EGFR – The recombinant GST-tagged EGFR (residues G696-G1022) containing kinase domain was expressed in Sf9 insect cells. The kinase assay was carried out in 96-well plates with the tested compound at 37°C for 60 min.
as §3
25 mM Tris pH 7.4 (EGFR), 10 m M MgCl2, 4 mM MnCl2, 0.5 mM Na3VO4, 2 mM DTT, 0.02% Triton X100, 0.01% BSA, […], 2 mM polyGlu4:Tyr peptide, 80~500 ng recombinant EGFR.

Another assay deals with HONE-1 cells. Kind of assay: Caspase-3/-7 activity imaging, HONE-1. The format is cell-based, Human. The settings on record: HONE-1, 60 h. Here is the method: Caspase-3/-7 activity was analyzed with the MagicRed™ DEVD real-time caspase activity detection kit (catalog number #935, Immunochemistry Technologies LLC, Bloomington, MN). Briefly, cells were cultured in chamber-slides and incubated with test agents for various durations. Cells were then incubated with the Caspase-3/-7 substrate MR-(DEVD2) in culture medium for 1 hour, and then co-incubated with Hoechst 33342 for 15 min. Cells were viewed with a UV-enabled inverted-microscope at an excitation wavelength of 540 nm–560 nm and emission at 610 nm. Experiments were repeated independently at least two times.

T1 sequence (Q9UM73 1058-1620): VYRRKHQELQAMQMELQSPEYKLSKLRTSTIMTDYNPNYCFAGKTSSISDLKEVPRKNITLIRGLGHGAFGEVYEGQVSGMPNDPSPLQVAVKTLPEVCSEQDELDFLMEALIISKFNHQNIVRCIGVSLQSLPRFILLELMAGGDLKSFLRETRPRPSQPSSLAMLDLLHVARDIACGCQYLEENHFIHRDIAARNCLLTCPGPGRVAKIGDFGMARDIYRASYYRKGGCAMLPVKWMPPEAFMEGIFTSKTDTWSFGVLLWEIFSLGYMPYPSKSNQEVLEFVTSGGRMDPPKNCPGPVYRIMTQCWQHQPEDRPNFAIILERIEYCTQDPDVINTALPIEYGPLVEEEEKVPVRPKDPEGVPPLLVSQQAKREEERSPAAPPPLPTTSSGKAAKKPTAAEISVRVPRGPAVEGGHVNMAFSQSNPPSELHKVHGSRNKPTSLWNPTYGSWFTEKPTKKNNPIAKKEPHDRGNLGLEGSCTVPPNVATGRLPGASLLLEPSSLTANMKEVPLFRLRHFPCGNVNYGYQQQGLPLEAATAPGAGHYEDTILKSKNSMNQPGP
T3 sequence (P00533 696-1022): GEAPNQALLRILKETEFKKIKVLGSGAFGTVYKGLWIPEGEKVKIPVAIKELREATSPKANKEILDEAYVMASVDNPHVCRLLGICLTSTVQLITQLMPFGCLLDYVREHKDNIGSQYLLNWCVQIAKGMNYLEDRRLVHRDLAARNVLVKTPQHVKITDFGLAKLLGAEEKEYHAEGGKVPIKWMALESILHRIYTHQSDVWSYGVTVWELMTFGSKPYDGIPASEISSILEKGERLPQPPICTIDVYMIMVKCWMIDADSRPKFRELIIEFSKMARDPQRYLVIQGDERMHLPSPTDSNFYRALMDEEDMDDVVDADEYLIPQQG
T2 sequence (P36888 567-993): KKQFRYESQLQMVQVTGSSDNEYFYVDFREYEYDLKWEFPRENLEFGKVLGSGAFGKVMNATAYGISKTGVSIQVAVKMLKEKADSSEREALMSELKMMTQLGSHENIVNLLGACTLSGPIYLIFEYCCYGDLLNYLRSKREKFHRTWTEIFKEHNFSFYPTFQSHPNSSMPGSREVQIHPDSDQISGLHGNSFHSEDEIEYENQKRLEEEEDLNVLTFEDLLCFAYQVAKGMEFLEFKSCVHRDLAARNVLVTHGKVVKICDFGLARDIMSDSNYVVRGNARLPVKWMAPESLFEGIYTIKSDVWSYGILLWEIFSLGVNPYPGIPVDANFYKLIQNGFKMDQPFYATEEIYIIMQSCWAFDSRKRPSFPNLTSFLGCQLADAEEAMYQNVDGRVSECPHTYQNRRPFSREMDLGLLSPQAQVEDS

As to `CN(C)Cc1ccccc1NC(=O)Nc1ccc(CCNc2ncnc3oc(-c4ccccc4)c(Cl)c23)cc1` [BPR1K653], the IC50 in assay [1] (A549, HONE-1, OECM-1, KB, HT29, NTUB1, MV4-11, IM9, read-out: IC50 against various types of cancer cells) was < 500 nM; in assay [1] (read-out: IC50 in all tested p53-wildtype/-negative/-mutant cancer cell lines), < 20 nM; in the assay on KB-7D cells, 19 nM; against ALK, > 10000 nM; in the assay on NTUB1 cells, 8 ± 4 nM; against FLT3, > 10000 nM. In addition, on EGFR, the IC50 is > 10000 nM. In assay [1] (MDR-negative and MDR1-expressing cancer cells, verapamil 10 µM, data not shown), the “effect of verapamil treatment on sensitivity” value is on record as “could not further increase the sensitivity to BPR1K653”. Moreover, the “apoptosis, caspase-3/-7 activity” value in the assay with HONE-1 cells was “induced apoptosis”.
